From ChEMBL document CHEMBL1201862, “PubChem BioAssay data set” (2004)
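How tested: cells in 96-well plates exposed to compound for 48 hours at five concentrations. GI50 is the concentration that inhibits growth by half.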 Calls of active or inactive are those of the source. Rule as the data show it: active = GI50 up to about 1.1 µM and inactive = higher.

Experiments:
Test in all cases: inhibition of tumour cell growth, NCI panel, 48 h
OVCAR-5 = test system: OVCAR-5
KM-20L2 = test system: KM-20L2
OVCAR-3 = test system: OVCAR-3
HT-29 = test system: HT-29
SNB-19 = test system: SNB-19
UO-31 = test system: UO-31
A549 = test system: A549
SW-620 = test system: SW-620
SK-MEL-2 = test system: SK-MEL-2
KM12 = test system: KM12
M19-MEL = test system: M19-MEL
HCT-15 = test system: HCT-15
NCI-H23 = test system: NCI-H23
NCI-H522 = test system: NCI-H522
XF498 = test system: XF498
SN12C = test system: SN12C
DMS-114 = test system: DMS-114
CAKI-1 = test system: CAKI-1
OVCAR-4 = test system: OVCAR-4
NCI-H226 = test system: NCI-H226
IGROV-1 = test system: IGROV-1
U-251 = test system: U-251
CCRF-CEM = test system: CCRF-CEM
SK-MEL-5 = test system: SK-MEL-5
HL-60 = test system: HL-60
SF-295 = test system: SF-295
NCI-H460 = test system: NCI-H460
UACC-62 = test system: UACC-62
OVCAR-8 = test system: OVCAR-8
SR = test system: SR
SK-OV-3 = test system: SK-OV-3
HCC 2998 = test system: HCC 2998
LOX IMVI = test system: LOX IMVI
RPMI-8226 = test system: RPMI-8226
UACC-257 = test system: UACC-257
HOP-18 = test system: HOP-18
A498 = test system: A498
EKVX = test system: EKVX
ACHN = test system: ACHN
SF-539 = test system: SF-539
DLD-1 = test system: DLD-1
786-0 = test system: 786-0
SF-268 = test system: SF-268
HOP-92 = test system: HOP-92
SK-MEL-28 = test system: SK-MEL-28
SNB-75 = test system: SNB-75
M14 = test system: M14
LXFL 529 = test system: LXFL 529
DMS-273 = test system: DMS-273
COLO 205 = test system: COLO 205
MOLT-4 = test system: MOLT-4
TK-10 = test system: TK-10
RXF 631 = test system: RXF 631
HOP-62 = test system: HOP-62
K562 = test system: K562
Malme-3M = test system: Malme-3M
HCT-116 = test system: HCT-116

## COc1ccc(OC)c(NC(=O)CCC/C(CC(=O)c2ccc(O)c(OC)c2)=N\NC(=O)C[N+](C)(C)C)c1
OVCAR-5
  GI50: > 100 µM (inactive)
KM-20L2
  GI50: > 100 µM (inactive)
OVCAR-3
  GI50: > 100 µM (inactive)
HT-29
  GI50: > 100 µM (inactive)
SNB-19
  GI50: > 100 µM (inactive)
UO-31
  GI50: > 100 µM (inactive)
A549
  GI50: > 100 µM (inactive)
SW-620
  GI50: > 100 µM (inactive)
SK-MEL-2
  GI50: > 100 µM (inactive)
KM12
  GI50: > 100 µM (inactive)
M19-MEL
  GI50: > 100 µM (inactive)
HCT-15
  GI50: > 100 µM
NCI-H23
  GI50: > 100 µM (inactive)
NCI-H522
  GI50: > 100 µM (inactive)
XF498
  GI50: > 100 µM (inactive)
SN12C
  GI50: > 100 µM (inactive)
DMS-114
  GI50: > 100 µM (inactive)
CAKI-1
  GI50: > 100 µM (inactive)
OVCAR-4
  GI50: > 100 µM (inactive)
NCI-H226
  GI50: > 100 µM (inactive)
IGROV-1
  GI50: > 100 µM (inactive)
U-251
  GI50: > 100 µM (inactive)
CCRF-CEM
  GI50: > 100 µM (inactive)
SK-MEL-5
  GI50: > 100 µM (inactive)
HL-60
  GI50: > 100 µM (inactive)
SF-295
  GI50: > 100 µM (inactive)
NCI-H460
  GI50: > 100 µM (inactive)
UACC-62
  GI50: > 100 µM (inactive)
OVCAR-8
  GI50: > 100 µM (inactive)
SR
  GI50: > 100 µM (inactive)
SK-OV-3
  GI50: > 100 µM (inactive)
HCC 2998
  GI50: > 100 µM (inactive)
LOX IMVI
  GI50: > 100 µM (inactive)
RPMI-8226
  GI50: 79.3 µM (inactive)
UACC-257
  GI50: > 100 µM (inactive)
HOP-18
  GI50: > 100 µM (inactive)
A498
  GI50: > 100 µM (inactive)
EKVX
  GI50: > 100 µM (inactive)
ACHN
  GI50: > 100 µM (inactive)
SF-539
  GI50: > 100 µM (inactive)
DLD-1
  GI50: > 100 µM (inactive)
786-0
  GI50: > 100 µM (inactive)
SF-268
  GI50: > 100 µM (inactive)
HOP-92
  GI50: > 100 µM (inactive)
SK-MEL-28
  GI50: > 100 µM (inactive)
SNB-75
  GI50: 84.7 µM (inactive)
M14
  GI50: > 100 µM (inactive)
LXFL 529
  GI50: > 100 µM (inactive)
DMS-273
  GI50: > 100 µM (inactive)
COLO 205
  GI50: > 100 µM (inactive)
MOLT-4
  GI50: > 100 µM (inactive)
TK-10
  GI50: > 100 µM (inactive)
RXF 631
  GI50: > 100 µM (inactive)
HOP-62
  GI50: > 100 µM (inactive)
K562
  GI50: > 100 µM (inactive)
Malme-3M
  GI50: > 100 µM (inactive)

## CC1(CO)OC(n2cc(C(=O)NC(=O)OCc3ccccc3)c(=O)[nH]c2=O)CC1O (stereo not drawn)
KM-20L2
  GI50: > 100 µM (inactive)
OVCAR-3
  GI50: > 100 µM (inactive)
HT-29
  GI50: > 100 µM (inactive)
SNB-19
  GI50: > 100 µM (inactive)
UO-31
  GI50: > 100 µM (inactive)
A549
  GI50: > 100 µM (inactive)
SW-620
  GI50: > 100 µM (inactive)
KM12
  GI50: > 100 µM (inactive)
M19-MEL
  GI50: > 100 µM (inactive)
HCT-15
  GI50: > 100 µM
NCI-H23
  GI50: > 100 µM (inactive)
NCI-H522
  GI50: > 100 µM (inactive)
XF498
  GI50: > 100 µM (inactive)
SN12C
  GI50: > 100 µM (inactive)
DMS-114
  GI50: > 100 µM (inactive)
CAKI-1
  GI50: > 100 µM (inactive)
NCI-H226
  GI50: > 100 µM (inactive)
IGROV-1
  GI50: > 100 µM (inactive)
U-251
  GI50: > 100 µM (inactive)
CCRF-CEM
  GI50: > 100 µM (inactive)
SK-MEL-5
  GI50: > 100 µM (inactive)
HL-60
  GI50: > 100 µM (inactive)
SF-295
  GI50: > 100 µM (inactive)
NCI-H460
  GI50: > 100 µM (inactive)
UACC-62
  GI50: > 100 µM (inactive)
OVCAR-8
  GI50: > 100 µM (inactive)
SR
  GI50: > 100 µM (inactive)
SK-OV-3
  GI50: > 100 µM (inactive)
LOX IMVI
  GI50: > 100 µM (inactive)
RPMI-8226
  GI50: > 100 µM (inactive)
UACC-257
  GI50: > 100 µM (inactive)
HOP-18
  GI50: > 100 µM (inactive)
A498
  GI50: > 100 µM (inactive)
ACHN
  GI50: > 100 µM (inactive)
HCT-116
  GI50: > 100 µM (inactive)
SF-539
  GI50: > 100 µM (inactive)
DLD-1
  GI50: > 100 µM (inactive)
786-0
  GI50: > 100 µM (inactive)
SF-268
  GI50: > 100 µM (inactive)
HOP-92
  GI50: > 100 µM (inactive)
SK-MEL-28
  GI50: > 100 µM (inactive)
SNB-75
  GI50: 84.5 µM (inactive)
M14
  GI50: > 100 µM (inactive)
LXFL 529
  GI50: > 100 µM (inactive)
DMS-273
  GI50: > 100 µM (inactive)
COLO 205
  GI50: > 100 µM (inactive)
MOLT-4
  GI50: > 100 µM (inactive)
TK-10
  GI50: > 100 µM (inactive)
RXF 631
  GI50: > 100 µM (inactive)
HOP-62
  GI50: > 100 µM (inactive)
K562
  GI50: > 100 µM (inactive)
Malme-3M
  GI50: > 100 µM (inactive)
